Measurements published in US10022315B2, “Oral composition for reinforcing skin tolerance following topical administration of a retinoid compound” (NUTRICOS TECHNOLOGIES, priority 2012, dated 2018).

Columns and labels:
Type in all cases: in vivo, human
menopausal women [1] = assay: Clinical study: evaluation by the patients of skin signs associated with the side effects of retinoic acid (none/mild/moderate/severe, on the face)
Method: (§1) The beneficial effect, in terms of reinforcing skin tolerance, of the food supplement of example 1 was assessed in a clinical study carried out according to the protocol which follows:
(§2) The study performed under dermatological control (30 dermatologists) was carried out in menopausal women (n=203), from 50 to 66 years old and showing moderate signs of photo-aging on the face.
(§3) These women were divided up into two treatment groups: • group 1 treated with 0.05% by weight retinoic acid, relative to the total weight of the composition, for 6 months at a rate of one application per day (control group), • group 2 treated with 0.05% by weight retinoic acid, relative to the total weight of the composition, for 6 months at a rate of one application per day, combined with daily intake of the food supplement as described in example 1. 3.1 Evaluation of Symptoms
(§4) The symptoms associated with skin tolerance were evaluated after 60, 120 and 180 days by, on the one hand, dermatologists and, on the other hand, by the subjects themselves.
During the last 2 months, have you experienced on the face

menopausal women [2] = assay: Clinical study: overall evaluation of skin tolerance to the treatments by the subjects (questionnaire)
Method: as §1, §2, §3
(§5) Skin tolerance to the treatments was checked after 60, 120 and 180 days by means of questionnaires given to the dermatologists and the subjects participating in the study.
(§6) Tables 1 (evaluations by the dermatologists) and 2 (self-evaluation by the subjects) summarize the skin tolerance results obtained in groups 1 and 2. The results are expressed as of subjects, in reply to the following question: “do you consider thus far that the tolerance to the treatment is”. The possible replies were excellent, good, average and poor.

menopausal women [3] = assay: Clinical study: evaluation by dermatologists of skin signs associated with the side effects of retinoic acid (score 0-9, on the face); conditions: scale 0-9, face
Method: as §1, §2, §3, §4
Dermatologist Scoring Scale

menopausal women [4] = assay: Clinical study: overall evaluation of skin tolerance to the treatments by the dermatologists (questionnaire)
Method: as §1, §2, §3, §5, §6

## CC1=C(/C=C/C(C)=C/C=C/C(C)=C/C(=O)O)C(C)(C)CCC1 [GROUP 1, retinoic acid]
Menopausal women [1]; D60
  Desquamation, patients replying mild (Mi): 41%
  Desquamation, patients replying moderate (Mo): 21%
  Desquamation, patients replying severe (S): 1%
  Redness, patients replying mild (Mi): 46%
  Redness, patients replying moderate (Mo): 13%
  Redness, patients replying severe (S): 0%
  Signs of discomfort, patients replying mild (Mi): 42%
  Signs of discomfort, patients replying moderate (Mo): 15%
  Signs of discomfort, patients replying severe (S): 0%
  Tautness, patients replying mild (Mi): 49%
  Tautness, patients replying moderate (Mo): 10%
  Tautness, patients replying severe (S): 1%
Menopausal women [1]; D120
  Desquamation, patients replying mild (Mi): 42%
  Desquamation, patients replying moderate (Mo): 14%
  Desquamation, patients replying severe (S): 0%
  Itching, patients replying mild (Mi): 42%
  Itching, patients replying moderate (Mo): 7%
  Itching, patients replying severe (S): 0%
  Redness, patients replying mild (Mi): 49%
  Redness, patients replying moderate (Mo): 7%
  Redness, patients replying severe (S): 1%
  Signs of discomfort, patients replying mild (Mi): 35%
  Signs of discomfort, patients replying moderate (Mo): 13%
  Signs of discomfort, patients replying severe (S): 0%
  Tautness, patients replying mild (Mi): 43%
  Tautness, patients replying moderate (Mo): 8%
  Tautness, patients replying severe (S): 0%
Menopausal women [1]; D180
  Desquamation, patients replying mild (Mi): 35%
  Desquamation, patients replying moderate (Mo): 8%
  Desquamation, patients replying severe (S): 0%
  Itching, patients replying mild (Mi): 35%
  Itching, patients replying moderate (Mo): 4%
  Itching, patients replying severe (S): 0%
  Redness, patients replying mild (Mi): 35%
  Redness, patients replying moderate (Mo): 6%
  Redness, patients replying severe (S): 0%
  Signs of discomfort, patients replying mild (Mi): 31%
  Signs of discomfort, patients replying moderate (Mo): 7%
  Signs of discomfort, patients replying severe (S): 0%
  Tautness, patients replying mild (Mi): 35%
  Tautness, patients replying moderate (Mo): 7%
  Tautness, patients replying severe (S): 1%
Menopausal women [1]; J60 (D60)
  Itching, patients replying mild (Mi): 48%
  Itching, patients replying moderate (Mo): 15%
  Itching, patients replying severe (S): 0%
Menopausal women [2]; D60
  Tolerance to the treatment judged Average by the subjects, subjects: 20%
  Tolerance to the treatment judged Excellent by the subjects, subjects: 18%
  Tolerance to the treatment judged Good by the subjects, subjects: 63%
  Tolerance to the treatment judged Poor by the subjects, subjects: 0%
Menopausal women [2]; D120
  Tolerance to the treatment judged Average by the subjects, subjects: 21%
  Tolerance to the treatment judged Excellent by the subjects, subjects: 25%
  Tolerance to the treatment judged Good by the subjects, subjects: 54%
  Tolerance to the treatment judged Poor by the subjects, subjects: 1%
Menopausal women [2]; D180
  Tolerance to the treatment judged Average by the subjects, subjects: 15%
  Tolerance to the treatment judged Excellent by the subjects, subjects: 30%
  Tolerance to the treatment judged Good by the subjects, subjects: 53%
  Tolerance to the treatment judged Poor by the subjects, subjects: 2%
Menopausal women [3]; D0
  Pruritus, mean score (dermatologists): 0.6
  Sign of desquamation, mean score (dermatologists): 1.6
  Sign of redness, mean score (dermatologists): 1.2
  Sign of skin dryness, mean score (dermatologists): 3.2
Menopausal women [3]; D60
  Pruritus, mean score (dermatologists): 1.2
  Sign of desquamation, mean score (dermatologists): 1.8
  Sign of redness, mean score (dermatologists): 1.6
  Sign of skin dryness, mean score (dermatologists): 2.7
Menopausal women [3]; D120
  Pruritus, mean score (dermatologists): 0.9
  Sign of desquamation, mean score (dermatologists): 1.5
  Sign of redness, mean score (dermatologists): 1.3
  Sign of skin dryness, mean score (dermatologists): 2.2
Menopausal women [3]; D180
  Pruritus, mean score (dermatologists): 0.6
  Sign of desquamation, mean score (dermatologists): 1.1
  Sign of redness, mean score (dermatologists): 1.0
  Sign of skin dryness, mean score (dermatologists): 1.7
Menopausal women [4]; D60
  Tolerance to the treatment judged Average by the dermatologists, subjects: 24%
  Tolerance to the treatment judged Excellent by the dermatologists, subjects: 15%
  Tolerance to the treatment judged Good by the dermatologists, subjects: 62%
  Tolerance to the treatment judged Poor by the dermatologists, subjects: 0%
Menopausal women [4]; D120
  Tolerance to the treatment judged Average by the dermatologists, subjects: 23%
  Tolerance to the treatment judged Excellent by the dermatologists, subjects: 20%
  Tolerance to the treatment judged Good by the dermatologists, subjects: 58%
  Tolerance to the treatment judged Poor by the dermatologists, subjects: 0%
Menopausal women [4]; D180
  Tolerance to the treatment judged Average by the dermatologists, subjects: 15%
  Tolerance to the treatment judged Excellent by the dermatologists, subjects: 23%
  Tolerance to the treatment judged Good by the dermatologists, subjects: 63%
  Tolerance to the treatment judged Poor by the dermatologists, subjects: 0%
